Source: patent publication US11897881B1, “Substituted pyrido[3,4-b]indole-3-carboxylic acids as CK2 inhibitors” (KING FAISAL UNIVERSITY, priority 2023, dated 2024)

Experiments:
H1299 (lung) = assay: In vitro cytotoxic activity assay (MTT), H1299; assay type: cell-based; conditions: Homo sapiens, NCI-H1299; H1299 (lung) cells, exposed for 96 hours; read-out: IC50, 50% inhibition of cell proliferation
Method: (§1) Compounds 1-15 were screened for their in vitro cytotoxic activity utilizing a 3-(4,5-dimethyl-thiazol-2-yl)-2,5-diphenyltetrazolium bromide (MTT) assay against selected cancer human cell lines consisting of PC3 (prostate), HCT116 (colon), A375 (melanoma), H1299 (lung), MIAPaCa-2 (pancreas), HL60 (leukemia), MCF7 (breast), MDA-MB-231 (breast) (T. Mosmann, J. Immunol. Meth., 1983, 65, 55-63). The cells were cultured at 37° C. in RMPI1640 medium supplemented with 10% fetal bovine serum, 50 IU/mL penicillin, and 50 μg/mL streptomycin in a 5% CO2 incubator. All cells were sub-cultured 3 times/week by trypsinisation. Viable cells were seeded and allowed to adhere for 12 h before a test drug was added in 96-well plates at an initial density of 1.0×10^5 cells/mL. Tumour cell lines were separately exposed to various concentrations of the tested compounds followed by incubation at a temperature of 37° C. during 96 h inside a medium of fresh RMPI 1640. Cells were subsequently incubated at 37° C. using MTT at 0.5 mg/mL during 4 h. After removal of supernatant, formazan crystals were dissolved in isopropanol and the optical density was measured at 570 nm. CX-4945 was used as a positive control.

HCT116 (colon) = assay: In vitro cytotoxic activity assay (MTT), HCT116; assay type: cell-based; conditions: Homo sapiens, HCT-116; HCT116 (colon) cells, exposed for 96 hours; read-out: IC50, 50% inhibition of cell proliferation
Method: as §1

[1] = target: T1, recombinant human CK2 (RRββ-holoenzyme) (Homo sapiens, UniProt P68400); assay: CK2 Kinase Assay (33P-ATP, filter plate); assay type: biochemical; conditions: final ATP concentration 15 μM, 10 min at 30° C., eight concentrations; read-out: protein kinase CK2 IC50
T1 construct: purchased Millipore
Method: CK2 Kinase Assay was conducted using the protocol as described in Pierre F. et al; J. Med. Chem. 2011, 54, 635-654. The tested compounds in aqueous solution were added at a volume of 10 μL to a reaction mixture comprising 10 μL of assay dilution buffer (ADB; 20 mM MOPS, pH 7.2, 25 mM β-glycerol phosphate, 5 mM EGTA, 1 mM sodium orthovanadate, and 1 mM dithiothreitol), 10 μL of substrate peptide (RRRDDDSDDD, dissolved in ADB at a concentration of 1 mM), 10 μL of recombinant human CK2 (RRββ-holoenzyme, 25 ng dissolved in ADB; Millipore). Reactions were initiated by the addition of 10 μL of ATP solution (90% 75 mMMgCl2, 75 μM ATP (final ATP concentration:15 μM) dissolved in ADB; 10% [γ-33P] ATP (stock 1 mCi/100 μL; 3000 Ci/mmol (Perkin-Elmer) and maintained for 10 min at 30° C. The reactions were quenched with 100 μL of 0.75% phosphoric acid and then transferred to and filtered through a phosphor cellulose filter plate (Millipore). After washing each well five times with 0.75% phosphoric acid, the plate was dried under vacuum for 5 min and, following the addition of 15 μL of scintillation fluid to each well, the residual radioactivity was measured using a Wallac luminescence counter. The IC50 values were derived from eight concentrations of test inhibitors.

MIAPaCa-2 (pancreas) = assay: In vitro cytotoxic activity assay (MTT), MIAPaCa-2; assay type: cell-based; conditions: Homo sapiens, MIA PaCa-2; MIAPaCa-2 (pancreas) cells, exposed for 96 hours; read-out: IC50, 50% inhibition of cell proliferation
Method: as §1

PC3 (prostate) = assay: In vitro cytotoxic activity assay (MTT), PC3; assay type: cell-based; conditions: Homo sapiens, Prostate cell; PC3 (prostate) cells, exposed for 96 hours; read-out: IC50, 50% inhibition of cell proliferation
Method: as §1

HL60 (leukemia) = assay: In vitro cytotoxic activity assay (MTT), HL60; assay type: cell-based; conditions: Homo sapiens, HL-60; HL60 (leukemia) cells, exposed for 96 hours; read-out: IC50, 50% inhibition of cell proliferation
Method: as §1

MCF7 (breast) = assay: In vitro cytotoxic activity assay (MTT), MCF7; assay type: cell-based; conditions: Homo sapiens; MCF7 (breast) cells, exposed for 96 hours; read-out: IC50, 50% inhibition of cell proliferation
Method: as §1

MDA-MB-231 (breast) = assay: In vitro cytotoxic activity assay (MTT), MDA-MB-231; assay type: cell-based; conditions: Homo sapiens; MDA-MB-231 (breast) cells, exposed for 96 hours; read-out: IC50, 50% inhibition of cell proliferation
Method: as §1

A375 (melanoma) = assay: In vitro cytotoxic activity assay (MTT), A375; assay type: cell-based; conditions: Homo sapiens, A-375; A375 (melanoma) cells, exposed for 96 hours; read-out: IC50, 50% inhibition of cell proliferation
Method: as §1

T1 sequence (P68400 whole entry): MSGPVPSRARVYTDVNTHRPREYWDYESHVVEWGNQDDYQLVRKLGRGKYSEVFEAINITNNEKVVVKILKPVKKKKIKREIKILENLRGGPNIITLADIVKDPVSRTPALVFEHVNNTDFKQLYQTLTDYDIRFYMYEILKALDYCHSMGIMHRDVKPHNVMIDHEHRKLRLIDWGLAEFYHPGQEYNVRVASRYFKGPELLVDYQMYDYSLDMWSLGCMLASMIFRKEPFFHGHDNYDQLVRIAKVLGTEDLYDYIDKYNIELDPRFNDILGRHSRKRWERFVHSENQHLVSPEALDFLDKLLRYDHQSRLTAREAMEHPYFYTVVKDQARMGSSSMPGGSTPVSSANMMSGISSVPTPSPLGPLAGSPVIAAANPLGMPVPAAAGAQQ
T1 sequence (P67870 whole entry partner): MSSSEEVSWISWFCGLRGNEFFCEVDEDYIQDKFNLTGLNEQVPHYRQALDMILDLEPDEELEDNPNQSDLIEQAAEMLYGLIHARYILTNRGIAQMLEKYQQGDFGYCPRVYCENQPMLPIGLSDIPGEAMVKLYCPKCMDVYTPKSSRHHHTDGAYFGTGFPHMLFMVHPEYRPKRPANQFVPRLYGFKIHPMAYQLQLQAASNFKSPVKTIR

`O=C(O)c1cc2c([nH]c3cc(O)ccc32)c(Nc2cccc(Cl)c2)n1` [Compound 1, 1-((3-chlorophenyl)amino)-7-hydroxy-9H-pyrido[3,4-b]indole-3-carboxylic Acid] was tested, and the IC50 (H1299 (lung)) was 1.8 µM, the IC50 (HCT116 (colon)) was 1.6 µM and the IC50 [1] was 0.165 µM. For the same molecule, the IC50 (MIAPaCa-2 (pancreas)) was 3.3 µM, the IC50 (PC3 (prostate)) was 1.2 µM and the IC50 (HL60 (leukemia)) was 4.1 µM. It also gave an IC50 (MCF7 (breast)) of 3.2 µM, an IC50 (MDA-MB-231 (breast)) of 2.5 µM and an IC50 (A375 (melanoma)) of 5.7 µM.
